Source: patent publication US20250041429A1, “COMPOUND HAVING BTK PROTEIN DEGRADATION ACTIVITY, AND MEDICAL USES THEREOF” (UBIX THERAPEUTICS, INC., priority 2021, published 2025)

Target: T1, BTK protein (Homo sapiens, UniProt Q06187)
T1 construct: endogenous in cells; host or cells: TMD-8 cells
Test: Measurement of BTK protein degradation ability in TMD-8 cells (Western blotting)
Format: cell-based
Details: harvested after 24 hours; for BTK degradation (%) 1 nM: compound 1 nM; for BTK degradation (%) 10 nM: compound 10 nM; for BTK degradation (%) 100 nM: compound 100 nM
Procedure: TMD-8, RAMOS, or 293T BTK MUT (C481S) cells were treated with the synthesized compounds, and then the amount of BTK protein present in the cells was measured using Western blotting detection. The protocol for the experiment conducted using TMD-8 cells was as follows:
[Culture] TMD-8 cells were resuspended in RPMI1640 MEDIUM (Hyclone, SH30027.01), 10% FBS (Hyclone, SV30207.02), and 1% Penicillin-streptomycin (Welgene, LS 202-02) media, and 1 mL of this suspension was seeded in a 12-well plate at a cell concentration of 1×10^6/mL.
[Compound treatment] The 12-well plate was treated as follows: The 10 mM stock was serially diluted 1/10 with DMSO (3 μL+27 μL DMSO), and cells were treated with compounds at final concentrations of 0.1, 1, 10 μM or 0.0001, 0.001, 0.01, 0.1 μM, and harvested after 24 hours. In the negative control group, DMSO diluted 1/10 was added to the media. (3 μL DMSO+27 μL media)
[Harvest] Each well was pipetted with a 1 mL pipette, collected in a 1.5 mL microtube, and centrifuged (500 g, 5 min, 4° C.). After removing the supernatant, it was washed with PBS and centrifuged again (500 g, 5 min, 4° C.). The supernatant was removed and the pellet was collected.
[Cell lysis and Sample preparation] lysis buffer was prepared as follows: RIPA buffer (Biosesang, RC2038-050-00), 0.5 mM PMSF (SIGMA, P7626) and 1× Protease/Phosphatase Inhibitor (Cell signaling, 5872S) were added at 60-70 μL per well and left on ice for 30 minutes. (Vortexing at 0 and 30 minutes, respectively), followed by sonication (10 seconds pulse, 30 seconds rest, 5 cycles, 70% amplification) and centrifuge (15000 g, 15 min, 4° C.). Only the supernatant was collected and transferred to a new microtube. The samples were diluted by ½ with RIPA buffer in a 96-well plate. 200 μL of the mixture A:B=50:1 of the BCA Protein Assay Kit (iNtRON, 21071) was added each, stayed at 37° C. for 30 minutes, and cooled for 10 minutes. Afterwards, absorbance was measured at 562 nm using BioTek's SYNERGY H1 microplate reader. After making a sample by quantifying the protein using the measured value, it was boiled at 70° C. for 10 minutes. The sample buffer used at this time was a mixture of NuPAGE or Bolt 4× sample buffer (Invitrogen) and each 10× sample reducing agent according to the gel to be used. RIPA buffer was used for protein dilution.
[Western blotting detection method] The same amount of sample was loaded on NuPAGE or Bolt Bis-tris 4-12% gradient gel and run (200 V, 35 minutes). It was transferred to a […] NC membrane using Trans-blot Turbo (BIO-RAD) (1.3 A constant, 25 V limit, 15 minutes). For blocking, skim milk or Intercept Blocking Buffer (LI-COR, 927-60001): 0.1% TBST=1:1 was used at room temperature for 1 hour. Anti BTK Rabbit (1:1,000 in 5% skim milk/0.2% TBST, size: 77 kDa, Cell signaling Technology) was reacted at 4° C. for 16 hours or at room temperature for 2 hours. Anti GAPDH Rabbit (1:10,000 in 5% BSA/0.2% TBST, size: 36 kDa, GENETEX) and Anti β-actin mouse (1:10,000 in 5% BSA/0.2% TBST, RT, size: 43 kDa, GENETEX) were reacted at room temperature for 1 hour or 3 hours. The samples were washed 3 times with 0.5% TBST for 5 minutes each. Secondary antibodies, Anti-Rabbit IgG (1:5,000 in 5% Skim milk/TBST, CST), IRDye® 800CW Goat anti-Rabbit IgG Secondary Antibody (1:10,000 in 5% skim/TBST, RT 45 min), IRDye® 680RD Goat anti-Mouse IgG Secondary Antibody (1:10,000 in 5% skim/TBST, RT 45 min) were added depending on each sample and reacted for 45 minutes on a rocker at room temperature. The samples were washed 5 times with 0.5% TBST for 5 minutes each and detected with LI-COR's Odyssey. At this time, BTK was detected using SuperSignal West Pico PLUS Chemiluminescent Substrate or SuperSignal West femto Maximum Sensitivity Substrate, and house-keeping genes were detected as is.

T1 sequence (Q06187 whole entry): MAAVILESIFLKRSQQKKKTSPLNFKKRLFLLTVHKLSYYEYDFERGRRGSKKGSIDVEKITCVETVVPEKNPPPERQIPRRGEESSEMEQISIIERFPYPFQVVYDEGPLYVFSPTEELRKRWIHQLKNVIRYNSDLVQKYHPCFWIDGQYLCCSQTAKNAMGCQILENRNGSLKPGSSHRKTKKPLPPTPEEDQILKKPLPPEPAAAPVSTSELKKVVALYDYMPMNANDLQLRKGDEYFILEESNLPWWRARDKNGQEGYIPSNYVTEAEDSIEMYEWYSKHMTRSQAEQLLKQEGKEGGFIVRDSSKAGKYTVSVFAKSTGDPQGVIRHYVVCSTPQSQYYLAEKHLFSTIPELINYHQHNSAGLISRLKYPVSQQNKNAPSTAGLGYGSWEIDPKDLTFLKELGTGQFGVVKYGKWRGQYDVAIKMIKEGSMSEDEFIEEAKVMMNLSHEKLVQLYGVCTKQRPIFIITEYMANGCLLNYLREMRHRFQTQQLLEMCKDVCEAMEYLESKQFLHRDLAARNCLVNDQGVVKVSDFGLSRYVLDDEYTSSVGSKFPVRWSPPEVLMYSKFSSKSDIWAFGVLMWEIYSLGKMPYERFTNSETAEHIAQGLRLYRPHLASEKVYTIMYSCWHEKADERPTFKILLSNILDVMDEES

Structure (SMILES)	BTK degradation (%) 1 nM [%]	BTK degradation (%) 10 nM [%]	BTK degradation (%) 100 nM [%]
Cc1cc(-c2ccnc(Nc3ccc(N4CCN(CC5CN(c6cc7c(cc6F)C(=O)N(C6CCC(=O)NC6=O)C7=O)C5)CC4)cc3)n2)ccc1CNC(=O)N1CC(OC(C)C)C1 (stereo not drawn) [Example 13, N-(4-(2-((4-(4-((1-(2-(2,6-dioxopiperidin-3-yl)-6-fluoro-1,3-dioxoisoindolin-5-yl)azetidin-3-yl)methyl)piperazin-1-yl)phenyl)amino)pyrimidin-4-yl)-2-methylbenzyl)-3-isopropoxyazetidine-1-carboxamide]	38	91	99
Cc1cc(-c2ccnc(Nc3ccc(N4CCN(CC5(C)CN(c6ccc7c(c6)C(=O)N(C6CCC(=O)NC6=O)C7=O)C5)CC4)cc3)n2)ccc1CNC(=O)N1CC(OC(C)C)C1 (stereo not drawn) [Example 14, N-(4-(2-((4-(4-((1-(2-(2,6-dioxopiperidin-3-yl)-1,3-dioxoisoindolin-5-yl)-3-methylazetidin-3-yl)methyl)piperazin-1-yl)phenyl)amino)pyrimidin-4-yl)-2-methylbenzyl)-3-isopropoxyazetidine-1-carboxamide]	20	85.5	98
Cc1cc(-c2ccnc(Nc3ccc(C4CCN(CC5CCN(c6ccc7c(c6)C(=O)N(C6CCC(=O)NC6=O)C7=O)CC5)CC4)cc3)n2)ccc1CNC(=O)N1CC(OC(C)C)C1 (stereo not drawn) [Example 15, N-(4-(2-((4-(1-((1-(2-(2,6-dioxopiperidin-3-yl)-1,3-dioxoisoindolin-5-yl)piperidin-4-yl)methyl)piperidin-4-yl)phenyl)amino)pyrimidin-4-yl)-2-methylbenzyl)-3-isopropoxyazetidine-1-carboxamide]	56.5	95.5	99
Cc1cc(-c2ccnc(Nc3ccc(C4CCN(CC5CN(c6ccc7c(c6)C(=O)N(C6CCC(=O)NC6=O)C7=O)C5)CC4)cc3)n2)ccc1CNC(=O)N1CC(OC(C)C)C1 (stereo not drawn) [Example 16, N-(4-(2-((4-(1-((1-(2-(2,6-dioxopiperidin-3-yl)-1,3-dioxoisoindolin-5-yl)azetidin-3-yl)methyl)piperidin-4-yl)phenyl)amino)pyrimidin-4-yl)-2-methylbenzyl)-3-isopropoxyazetidine-1-carboxamide]	59	93	98.5
Cc1cc(-c2ccnc(Nc3ccc(N4CCN(CC5CCN(c6ccc7c(c6)C(=O)N(C6CCC(=O)NC6=O)C7=O)CC5)CC4)nc3)n2)ccc1CNC(=O)N1CC(OC(C)C)C1 (stereo not drawn) [Example 17, N-(4-(2-((6-(4-((1-(2-(2,6-dioxopiperidin-3-yl)-1,3-dioxoisoindolin-5-yl)piperidin-4-yl)methyl)piperazin-1-yl)pyridin-3-yl)amino)pyrimidin-4-yl)-2-methylbenzyl)-3-isopropoxyazetidine-1-carboxamide]	37	91	98
Cc1cc(-c2ccnc(Nc3ccc(N4CCN(CC5CN(c6ccc7c(c6)C(=O)N(C6CCC(=O)NC6=O)C7=O)C5)CC4)nc3)n2)ccc1CNC(=O)N1CC(OC(C)C)C1 (stereo not drawn) [Example 18, N-(4-(2-((6-(4-((1-(2-(2,6-dioxopiperidin-3-yl)-1,3-dioxoisoindolin-5-yl)azetidin-3-yl)methyl)piperazin-1-yl)pyridin-3-yl)amino)pyrimidin-4-yl)-2-methylbenzyl)-3-isopropoxyazetidine-1-carboxamide]	46	92	98.5
